This is an account of results in US10155985B2, “Evaluation of eosinophilic esophagitis” (CHILDREN'S HOSPITAL MEDICAL CENTER, priority 2004, dated 2018).

Data set [1] deals with EE transcriptome. The experiment in a line: EE transcriptome of EE patients after fluticasone propionate treatment. In kind it is in vivo, human. As to conditions: EE patients treated; FIG. 6. As for the experimental part:
The data were analyzed by cluster analysis and ordered (standard correlation (A) and distance (B)) using Genespring software. […] Each column represented a separate individual and each line a gene. RNA from each patient was subjected to chip analysis using Affymetrix Human Genome U133 GeneChip plus 2.
In one embodiment, the EE transcriptome was used to evaluate EE patients pre- and post-treatment regimens.
This group of 13 non-responsive genes is SEQ ID NOS. 6, 35, 43, 61, 129, 1358, 1441, 1515, 1538, 1584, 1615, 1618, and 1620. Evaluation of these genes provides a marker of past, present, and/or future active disease, especially in the absence of overt disease. […] Thus, these 13 genes can be used to evaluate a patients propensity to EE, particularly in the absence of clinical or physical symptoms of EE or microscopic findings typical of EE. […] These 13 genes can be used to evaluate EE in an asymptomatic population or when past EE is suspected in a non-active EE individual at the time of endoscopy.

In another data set the test system is eosinophilic esophagitis. As to conditions: cited from earlier work.
The subject of data set [2] is esophageal epithelial cells. Nature of the data set: Transcriptome of esophageal epithelial cells stimulated with IL-13, compared to the EE transcriptome. In kind it is cell-based. An excerpt:
In one embodiment, the EE transcriptome was compared to transcriptomes in cell/tissues that had been treated with one or more compounds potentially involved with and/or efficacious against EE. By comparing the EE transcriptome to the transcriptome of, e.g., a simple in vitro or ex vivo model of a particular compound, one can assess the percentage of genes that are dysregulated in EE due to that particular compound.
For example, in ex vivo or in vitro models, a compound was used to stimulate an esophageal cell type.

For data set [3], the system named is EE transcriptome. The experiment in a line: Genome-wide microarray transcript profiling of esophageal biopsies, EE patients vs normal individuals (EE transcriptome). The following applies: transcript level in esophageal biopsies of EE patients (n=76) compared to normal individuals (n=13); Affymetrix Human Genome U133 plus 2; p<0.01. An outline of the steps: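 Distal esophageal biopsies from EE patients (n=76; >24 eosinophils/hpf, basal hyperplasia) and normal controls (n=13; 0 eosinophils/hpf) profiled on Affymetrix Human Genome U133 plus 2 chips. Expression by absolute call and average difference, global scaling; transcriptome genes defined as p<0.01 (Welch t-test) and ≥1.5-fold change.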

As to `CCC(=O)O[C@]1(C(=O)SCF)[C@H](C)C[C@H]2[C@@H]3C[C@H](F)C4=CC(=O)C=C[C@]4(C)[C@@]3(F)[C@@H](O)C[C@@]21C` [fluticasone propionate], in the data set with EE transcriptome [1], the “number of EE transcriptome genes normalized by treatment” value was found to be 1605 genes/1620 genes, the “number of EE transcriptome genes resistant to treatment” value is recorded as 13 genes/1620 genes and the “share of the EE transcriptome resistant to treatment” value is on record as “less than 1%”. The “effect on EE disease” value in the data set on eosinophilic esophagitis (Gastroenterology 131 (2006) 1381) was “induce EE disease remission”. For the same molecule, the “effect on EE gene dysregulation” value with eosinophilic esophagitis (J. Allergy Clin. Immunol. 120 (2007) 1292, U.S. Ser. No. 61/118,981) is given as “reverse EE gene dysregulation”.

With interleukin 13 [IL-13], the “share of the genes of the EE transcriptome potentially due to stimulation of esophageal epithelial cells” value in data set [2] is reported as 20%.

B1: SEQ_ID_#186 (nucleic acid, listed as Homo sapiens)
DNA: CACCGGCTACAAGGCTAGACCGGGGGCTCGCATATCTCCACTTGCAGCTGCCACTGCCATTAGAAGAACTTGCTCAGCCAGCTCCTGGGCCCCAGGAAAAGGACAAGTGTCACCCAGAACAGAGCCACCTCCAGCTGCACTCAGCTCCAGAAGCTGGCCCAGCCGGTCCAGTACACCTTTTAAATAATGTCCTCTACGTGCCGGTGTGGAAGTAGCCCGGATGCAATTGAATGAACAACAGACGGTGCTTTCCAGGACGGCGCTGTGCTTTCCAGGATGGTGCTGTGCTTTCATTCATTTGGGTAGCTCCTCTGTGAGCCTCCCAGCGCCGACTGCAGAGCCCCCACTCTCCAGCCTGCAAGACCCCGAAATTCAAGCCACACAAAGAAAGGAGGAGGGGGCCGTGGCATTTACTGAACCTTATAAAACTGTCAGCAAAACAGCCCTTAGGCTTGGACTCCCTGCTAGCCGGGTTTTACGGTGCTGAAGTCAGCATCTTGATTCAGCTGCATAAATAATCTCCTGCAGTCCTGCAAGGCCTGGGGTAGGAGAGGGTATGGGGACCAGGGCACTCTGTAAGGGCTGGATAGGAACCCCAGGGAATAAGACAGACCAATGCGGGACTTCAGACTCCACTGCAGCGGGATCGGG
As for B1, the “Fold Change” value in the data set with EE transcriptome [3] stood at 2.617.

B2: SEQ_ID_#43 (nucleic acid, listed as Homo sapiens)
DNA: TTCACTTTTTCATTATTTTATTGTTGTTTTAGTAGCATTTTGAGGTGAATGTATGCATAATCAGTGAATTAGACAAGCATGCACATACATGATATCTGATCAAACATTTTTTTGTCTCTCATCATCCTCATAAAATTTATTCAGTGGGAGAAGCTTTTTCTTCCATCAGATACATTCCAGTTGTATGCCAACATACTCAGGTAAGAGCAACATTTTGGTCATTTTAAATAGTTTGGTAATTATGACTCCCAGTCGCCTACAATAAGAAGAAACTACAATAATTTAGTACTAAATTTTTCTTCCCTCTCCAACTGAGTCTTGTGTTGAGTTGCCTACTTGCGCTAGCACATCTTCCCTTGCTGGTTGACATTTTTGCTAAGATTTCTCCCTCTCCTTCCACCCCACCTTGGACACGGAGGTTTCTGGCCTCCCTTTCCCCAAGGTCCCCAAAAAAAGAAATCTGTCTTATGAGATAGGGCTGCCTTCACATGGTGTCAGGGTTCTCTGGATAGTAATTGTGTGTAATAAGAGAGGGAGCATTCAAGAACTCCCATAGAAATTCTCATAGCCCTGACTTCTCATCTTTAGCTTGTGTAGATTTTTTTGTATTCCAGGTGGTCATTTGTGACTCCTTCCTCATCCCACAATCTGGCTTCACCTCCCACTTCTTGATGCTGGGTTCCCTCCACCTCTTTGGACAACCTATCAGAGAGGACCTAAAGAGCCCATGCTGACTTCACTCTTGCATGTCTCACTATGGTTCATGGGAAACCACACATCCATTGCCCTGACAACACTAGACATACAGGC
On to B2, for which, in the data set with EE transcriptome [3], the “Fold Change” value is 5.944.

B3: SEQ_ID_#243 (nucleic acid, listed as Homo sapiens)
DNA: GGAAAGAGAGGAGAGGGGAGGGGAAGAGAGGGGAGGGAAGGGCAGGGCAGGGCAGAGCCCGGCAGGCAGCCCTCAGAGGAGGGGCGCAGGCCCCAGCCCAAGGCCTCCCGCGCCTGCCCAGGTCCCGGCCTCCATCGTCCAGGGCTCTGGGGCTCCCAGGGGAGACACCCACGCTCGGCCAAGCCCAGGGTTCCAGAAGCCCAGGGGTGGCGGCAGCCGGGCTCAGCCTATGGCCAGGCTCGCATTCAGACATGCGCCAGCCTCGGTCGGCTCTCTCCGGGAGACACTAAGATCTCCTCACTGACTTTGGTGTTCCTTGGTCTCACCAGCGCGTCCTAGCTGTGCCGAGCTCACACCCACCCTGTTTGGTGTAAGCCACAGGTCCACAACGTTCATCAGCTCTGGAAATCCCTCAACAATTGTGTCCAGTTTCACCACGAATTCCTTCTCCATATCCTCACCATTTTCTTTTACCCCCTCATCAAATTACTCCCTTCCGTCTAATCTGCTGATTAACTCATTCATTTTATCTTAAATTATTATG
Consider B3, for which the “Fold Change” value in the data set on EE transcriptome [3] amounted to 2.308.

B4: SEQ_ID_#52 (nucleic acid, listed as Homo sapiens)
DNA: TTTTTTTCCAAGGGGAGAATGAAGCCATTTTATTTAGGGGAATGTTAAAACAAAGCCATATACAATCTGTAACAAATACAATACAATTGTTTGTTCCCTAGTCCTGAATAATTACAGTATATACAAAATCTGTAAGGCACTGGTTCCCCCAAAAGAACAAATGAGTCTTCTTGTGAAACAGACAACGAAACCCCTATATTGCCAACTTTTCTCCAAAAAATATGGCATTGTTTTTTTGTTTTGTTTTACAAGAGGAATCACAATTGCTAAATTAAGTCACTTCTGATGCCATTTCTTTCATTTCCACTGCTATGTGTCTGGGTTTTCTAAGGCAATGTAACTACTGAACATGTTCAAGTTTAAAAAACTATACTTCTCTCAGTGCCGTTCCACCCACAAACAAAGAAGAATCAGATCA
Take B4: in the data set on EE transcriptome [3], the “Fold Change” value is listed as 5.183.

B5: SEQ_ID_#245 (nucleic acid, listed as Homo sapiens)
DNA: TTTTTTTTTTGTATTTTTTGCAGGGACAGGGTTTCACCATATTGCTCAGGGTAGTCTCGAACTCCTGAGCTCAAGGGATCCACCCTGCCTTGGCCTCCCAGTGTGCTGGGATTTCACACGTGAGCCACCGAGCCCAGCTACATTCTTATTTCCTAAACTTTACAAGTTCACACTCTTCCCTTTAAACAAATGTGCCCCCTCTGGCGGTGTCATTTGAGTCCCGGTGTATGTCATTAAGCCTCTTAACCTCAACCACTACTTCCCACTGAAATAACTCTATTTTCTTTTTTTCTAATGAAAAAGTAAGACATGTTCTATGTAAAAATTAAAATATGGTGAGCACTTACCACTTACTATGAGCCAGGCATTGAACTAAGTATTTTTTAATCTTATTTTCATCCTCGTGATATGAGGTCAGTGCTTTGATGAGTTCCATTTTACGTAAGAAAGTAGTTAAG
For B5, in the data set on EE transcriptome [3], the “Fold Change” value came out at 2.303.
